Consider two compounds from US9902733B2, “Furopyridines as inhibitors of protein kinases” (MASARYKOVA UNIVERZITA, priority 2014, dated 2018).

Some results are limits rather than exact numbers.

What is called IC50 is the concentration needed to halve the response being measured. A higher IC50 goes with weaker potency.

In one assay the target is T1, CLK4 (h) (Homo sapiens, UniProt Q9HAZ1).
T1 construct: purchased Merck Millipore (KinaseProfiler service)
As to the kind of experiment: CLK4 KinaseProfiler radiometric protein kinase assay. It counts as biochemical. To be noted: 15 μM ATP, 40 minutes at room temperature. The protocol: (§1) In vitro essays were performed by the company Merck Millipore in their KinaseProfiler radiometric protein kinase assay as paid commercial service. The compounds IC50 values for inhibition of individual protein kinases were determined. Dose-response curves were plotted from inhibition data generated, each in duplicate, from 10 point serial dilutions of inhibitory compounds. Concentration of compound was plotted against % kinase activity. To generate IC50 values, the dose-response curves were fitted to a standard sigmoidal curve and IC50 values were derived by standard nonlinear regression analysis.
(§2) All tested compounds were prepared in 100% DMSO to final assay concentrations either 0.5 mM (for the concentration row A, see below) or 0.05 mM (for the concentration row B). This working stock of the compound was added to the assay well as the first component in the reaction, followed by the remaining components as detailed below. The stock solution was added to the individual assay wells in such amounts that the concentrations of the compound were either in the row A (0.001 μM, 0.003 μM, 0.01 μM, 0.03 μM, 0.1 μM, 0.3 μM, 1.0 μM, 3.0 μM, and 10.0 μM) or in the row B (0.0001 μM, 0.0003 μM, 0.001 μM, 0.003 μM, 0.01 μM, 0.03 μM, 0.1 μM, 0.3 μM, and 1.0 μM). There was no pre-incubation step between the compound and the kinase prior to initiation of the reaction.
(§3) The positive control wells contained all components of the reaction, except the compound of interest; however, DMSO (at a final concentration of 2%) was included in these wells to control for solvent effects. The blank wells contained all components of the reaction, with staurosporine as a reference inhibitor replacing the compound of interest. This abolished kinase activity and established the base-line (0% kinase activity remaining).
CLK4 (h) was diluted in the buffer (20 mM MOPS, 1 mM EDTA, 0.01% Brij-35, 5% Glycerol, 0.1% β-mercaptoethanol, 1 mg/mL BSAs) to the concentration of 1.01 mg/mL prior to addition to the reaction mix.
The above stock solution of CLK4(h) was added to a mixture containing 8 mM MOPS pH 7.0, 0.2 mM EDTA, and 200 μM […](p) EDEEE in such amount that the resulting concentration of CLK4(h) was 140.8 nM. This mixture was added to the stock solution of the tested compound. The reaction was initiated by the addition of the MgATP mix in such amount that the resulting concentration of Mg acetate in the reaction mixture was 10 mM and [γ-^33P-ATP] (specific activity approx. 500 cpm/pmol) was 15 μM. After incubation for 40 minutes at room temperature, the reaction was stopped by the addition of 3% phosphoric acid solution. 10 μL of the reaction was then spotted onto a P30 filtermat and washed three times for 5 minutes in 75 mM phosphoric acid and once in methanol prior to drying and scintillation counting.

In a further assay the target is T2, HIPK2(h) (Homo sapiens, UniProt Q9H2X6).
T2 construct: purchased Merck Millipore (KinaseProfiler service)
T2 sequence (Q9H2X6 whole entry): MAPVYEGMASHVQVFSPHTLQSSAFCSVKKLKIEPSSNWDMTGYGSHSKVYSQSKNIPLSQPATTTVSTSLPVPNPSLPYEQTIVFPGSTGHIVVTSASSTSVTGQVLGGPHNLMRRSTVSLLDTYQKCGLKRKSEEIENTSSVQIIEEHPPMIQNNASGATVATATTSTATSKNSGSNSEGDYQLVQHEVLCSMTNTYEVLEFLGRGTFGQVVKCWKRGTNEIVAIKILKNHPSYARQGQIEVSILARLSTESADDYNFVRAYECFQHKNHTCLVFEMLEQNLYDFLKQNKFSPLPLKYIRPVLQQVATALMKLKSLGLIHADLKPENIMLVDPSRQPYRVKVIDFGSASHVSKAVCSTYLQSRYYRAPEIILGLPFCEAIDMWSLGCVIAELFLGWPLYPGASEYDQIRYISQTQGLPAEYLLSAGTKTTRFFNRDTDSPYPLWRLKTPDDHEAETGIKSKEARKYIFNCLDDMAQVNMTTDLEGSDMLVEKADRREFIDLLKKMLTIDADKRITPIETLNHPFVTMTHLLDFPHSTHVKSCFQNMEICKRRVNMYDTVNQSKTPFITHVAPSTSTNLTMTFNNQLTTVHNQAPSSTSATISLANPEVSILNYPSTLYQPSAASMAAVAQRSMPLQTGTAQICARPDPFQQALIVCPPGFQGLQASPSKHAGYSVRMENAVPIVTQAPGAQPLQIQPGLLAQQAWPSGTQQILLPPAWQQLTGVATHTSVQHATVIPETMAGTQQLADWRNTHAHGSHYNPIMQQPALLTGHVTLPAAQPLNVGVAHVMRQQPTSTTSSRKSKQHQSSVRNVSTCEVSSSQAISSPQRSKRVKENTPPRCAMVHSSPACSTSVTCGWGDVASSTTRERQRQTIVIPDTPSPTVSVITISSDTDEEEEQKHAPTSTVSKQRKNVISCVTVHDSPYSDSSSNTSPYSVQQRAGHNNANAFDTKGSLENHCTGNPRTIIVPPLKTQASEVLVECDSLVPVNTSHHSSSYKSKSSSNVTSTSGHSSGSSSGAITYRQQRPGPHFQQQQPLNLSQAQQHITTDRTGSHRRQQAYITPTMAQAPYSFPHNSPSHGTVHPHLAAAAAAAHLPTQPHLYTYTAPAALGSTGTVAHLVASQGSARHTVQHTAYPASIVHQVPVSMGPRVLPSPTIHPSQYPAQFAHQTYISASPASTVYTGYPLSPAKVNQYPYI
As to the kind of experiment: HIPK2 KinaseProfiler radiometric protein kinase assay. It counts as biochemical. The following applies: 10 μM ATP, 40 minutes at room temperature. The protocol: as §1, §2, §3
HIPK2(h) was diluted in the buffer (20 mM MOPS, 1 mM EDTA, 0.01% Brij-35, 5% Glycerol, 0.1% β-mercaptoethanol, 1 mg/mL BSAs) to the concentration of 1.01 mg/mL prior to addition to the reaction mix.
The above stock solution of HIPK2(h) was added to a mixture containing 8 mM MOPS pH 7.0, 0.2 mM EDTA, and 0.33 mg/mL myelin basic protein in such amount that the resulting concentration of HIPK2(h) was 1.4 nM. This mixture was added to the stock solution of the tested compound. The reaction was initiated by the addition of the MgATP mix in such amount that the resulting concentration of Mg acetate in the reaction mixture was 10 mM and [γ-^33P-ATP] (specific activity approx. 500 cpm/pmol) was 10 μM. After incubation for 40 minutes at room temperature, the reaction was stopped by the addition of 3% phosphoric acid solution. 10 μL of the reaction was then spotted onto a P30 filtermat and washed three times for 5 minutes in 75 mM phosphoric acid and once in methanol prior to drying and scintillation counting.

T1 sequence (Q9HAZ1 whole entry): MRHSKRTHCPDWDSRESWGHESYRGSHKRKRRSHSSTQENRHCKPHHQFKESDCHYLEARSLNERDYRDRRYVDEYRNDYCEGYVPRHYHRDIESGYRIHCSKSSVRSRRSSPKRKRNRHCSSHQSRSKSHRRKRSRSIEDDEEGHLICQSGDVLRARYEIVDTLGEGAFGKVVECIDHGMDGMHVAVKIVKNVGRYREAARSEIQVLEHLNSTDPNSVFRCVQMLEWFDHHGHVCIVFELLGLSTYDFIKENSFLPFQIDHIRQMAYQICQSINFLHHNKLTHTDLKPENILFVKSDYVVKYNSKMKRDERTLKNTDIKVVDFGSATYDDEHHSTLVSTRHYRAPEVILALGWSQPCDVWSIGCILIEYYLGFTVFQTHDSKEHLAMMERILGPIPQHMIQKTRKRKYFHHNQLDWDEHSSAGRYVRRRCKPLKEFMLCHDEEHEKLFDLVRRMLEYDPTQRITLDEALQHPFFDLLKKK

On to `Cn1cc(-c2ccc3occ(-c4ccccc4)c3n2)cn1` [Preparative Example 6A], for which the IC50 was below 100 nM at CLK4 (h) and below 1000 nM against HIPK2(h).
The matching figures for `c1ccc(-c2coc3ccc(-c4cn[nH]c4)nc23)cc1` [Preparative Example 9]: below 100 nM and below 100 nM.
